Results reported in PMC6572064, “Discovery of 2-(1-(3-(4-Chloroxyphenyl)-3-oxo- propyl)pyrrolidine-3-yl)-1H-benzo[d]imidazole-4-carboxamide: A Potent Poly(ADP-ribose) Polymerase (PARP) Inhibitor for Treatment of Cancer” (Molecules, 2019).
pIC50: −log10 of the molar value. Read-outs that look alike come from different tables or passages of the source. One block for each compound: values may come before it.

What was measured:
PARP-1 = target: T1, PARP-1 (Homo sapiens, UniProt P09874); assay: PARP-1 inhibition assay (PARP-1 Chemiluminescent Assay Kit, BPS Bioscience); type: biochemical; details: 10 nM compound
T1 construct: purchased BPS Bioscience 80569
Protocol: (§1) The PARP-1 and PARP-2 inhibition assays were performed in outsourcing, by a CRO company, Shanghai Medicilon Inc. (Shanghai, China). […] Briefly, PARP-1 or PARP-2 biotinylated substrate was incubated with compounds or solvent control at varying concentrations and an assay buffer containing the PARP-1 or PARP-2 enzyme.

PARP-2 = target: T2, PARP-2 (Homo sapiens, UniProt Q9UGN5); assay: PARP-2 inhibition assay (PARP-2 Chemiluminescent Assay Kit, BPS Bioscience); type: biochemical; details: 10 nM compound
T2 construct: purchased BPS Bioscience 80552
Protocol: as §1

[1] = system: CAPAN-1 (a BRCA-2-mutated pancreatic cancer cell line); assay: Cell proliferation assay, three-day, CellTiter-Glo, CAPAN-1; type: cell-based; details: for inhibition at 0.00508 µM: CAPAN-1, 0.00508 uM; for inhibition at 0.0152 µM: CAPAN-1, 0.0152 uM; for inhibition at 0.0457 µM: CAPAN-1, 0.0457 uM; for inhibition at […]: CAPAN-1, 0.14 uM; for inhibition at 0.41 µM: CAPAN-1, 0.41 uM; for inhibition at 1.23 µM: CAPAN-1, 1.23 uM; for inhibition at 3.7 µM: CAPAN-1, 3.70 uM; for inhibition at 11.11 µM: CAPAN-1, 11.11 uM; for inhibition at 33.33 µM: CAPAN-1, 33.33 uM; for inhibition at 100 µM: CAPAN-1, 100.00 uM
Protocol: (§2) A three-day assay was conducted. A cell suspension was prepared. Cell density was counted by an automated cell counter and then diluted to the required density, according to seeding density. 50 μL cells were seeded into 384-well plate in growth medium according to the plate map. The cells were incubated at 37 °C, 5% CO2 overnight.
(§3) 200× compound solution in DMSO was prepared and diluted with growth medium to 26× final concentration by addition of 26 μL 200× compounds to 174 μL growth medium. Then 2 μL of diluted compound solution was added to cells and the cell was incubated at 37 °C, 5% CO2 for 72 h.
(§4) The assay plate was equilibrated to room temperature prior to measurement. 15 μL of CellTiter-Glo Reagent was added into each well and the contents were mixed for 2 min on an orbital shaker to induce cell lysis. The cells were incubated at room temperature for 60 min to stabilize luminescent signal. Luminescence was recorded on the Envision system.

[2] = system: MDA-MB-436 (a BRCA-1-mutated breast cancer cell line); assay: Cell proliferation assay, three-day, CellTiter-Glo, MDA-MB-436; type: cell-based; details: for inhibition at 0.00508 µM: MDA-MB-436, MDA-MB-436, Conc. 0.00508 uM; for inhibition at 0.0152 µM: MDA-MB-436, MDA-MB-436, Conc. 0.0152 uM; for inhibition at 0.0457 µM: MDA-MB-436, MDA-MB-436, Conc. 0.0457 uM; for inhibition at 0.41 µM: MDA-MB-436, MDA-MB-436, Conc. 0.41 uM; for inhibition at 1.23 µM: MDA-MB-436, MDA-MB-436, Conc. 1.23 uM; for inhibition at 3.7 µM: MDA-MB-436, MDA-MB-436, Conc. 3.70 uM; for inhibition at 11.11 µM: MDA-MB-436, MDA-MB-436, Conc. 11.11 uM; for inhibition at 33.33 µM: MDA-MB-436, MDA-MB-436, Conc. 33.33 uM; for inhibition at 100 µM: MDA-MB-436, MDA-MB-436, Conc. 100.00 uM
Protocol: as §2, §3, §4

[3] = supplement sheet, read-out: 10 nM inhibition% PAPR-1
[4] = read-out: PARP-1 Inhibition % (10 nM)
[5] = supplement sheet, read-out: 10 nM inhibition% PAPR-2
[6] = read-out: PARP-2 Inhibition % (10 nM)
[7] = Homo sapiens, CAPAN-1, 72 h, CellTiter-Glo, read-out: CAPAN-1 IC50
[8] = Homo sapiens, replicate 1, read-out: Inh % 1
[9] = Homo sapiens, replicate 2, read-out: Inh % 2
[10] = Homo sapiens, MDA-MB-436, 72 h, CellTiter-Glo, read-out: MDA-MB-436 IC50

T1 sequence (P09874 whole entry): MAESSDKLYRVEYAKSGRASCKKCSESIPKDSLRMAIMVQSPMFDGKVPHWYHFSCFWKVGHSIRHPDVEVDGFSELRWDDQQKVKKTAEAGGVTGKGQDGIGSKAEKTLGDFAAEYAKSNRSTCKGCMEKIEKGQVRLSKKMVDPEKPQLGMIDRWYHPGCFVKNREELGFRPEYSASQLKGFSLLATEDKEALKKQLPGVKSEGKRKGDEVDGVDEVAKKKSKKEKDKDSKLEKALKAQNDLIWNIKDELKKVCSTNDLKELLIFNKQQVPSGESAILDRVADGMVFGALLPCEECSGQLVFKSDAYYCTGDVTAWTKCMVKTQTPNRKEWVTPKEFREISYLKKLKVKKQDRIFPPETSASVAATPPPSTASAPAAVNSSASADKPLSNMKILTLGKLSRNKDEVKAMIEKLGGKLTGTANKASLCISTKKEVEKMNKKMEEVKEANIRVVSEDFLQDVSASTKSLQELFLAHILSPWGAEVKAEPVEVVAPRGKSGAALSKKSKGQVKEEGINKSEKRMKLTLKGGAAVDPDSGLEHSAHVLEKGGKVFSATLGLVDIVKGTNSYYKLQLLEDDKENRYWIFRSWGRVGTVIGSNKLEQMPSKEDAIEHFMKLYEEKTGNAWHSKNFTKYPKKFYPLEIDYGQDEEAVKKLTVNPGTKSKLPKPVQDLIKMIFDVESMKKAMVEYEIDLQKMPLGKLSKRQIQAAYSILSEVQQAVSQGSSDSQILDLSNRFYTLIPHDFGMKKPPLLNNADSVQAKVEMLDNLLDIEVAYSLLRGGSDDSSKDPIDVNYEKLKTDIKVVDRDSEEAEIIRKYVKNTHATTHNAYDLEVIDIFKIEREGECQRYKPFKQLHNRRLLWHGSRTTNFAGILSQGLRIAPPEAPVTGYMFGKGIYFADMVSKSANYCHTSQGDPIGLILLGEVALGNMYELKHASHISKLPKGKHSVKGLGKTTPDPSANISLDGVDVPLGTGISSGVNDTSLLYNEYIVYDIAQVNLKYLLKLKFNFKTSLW
T2 sequence (Q9UGN5 whole entry): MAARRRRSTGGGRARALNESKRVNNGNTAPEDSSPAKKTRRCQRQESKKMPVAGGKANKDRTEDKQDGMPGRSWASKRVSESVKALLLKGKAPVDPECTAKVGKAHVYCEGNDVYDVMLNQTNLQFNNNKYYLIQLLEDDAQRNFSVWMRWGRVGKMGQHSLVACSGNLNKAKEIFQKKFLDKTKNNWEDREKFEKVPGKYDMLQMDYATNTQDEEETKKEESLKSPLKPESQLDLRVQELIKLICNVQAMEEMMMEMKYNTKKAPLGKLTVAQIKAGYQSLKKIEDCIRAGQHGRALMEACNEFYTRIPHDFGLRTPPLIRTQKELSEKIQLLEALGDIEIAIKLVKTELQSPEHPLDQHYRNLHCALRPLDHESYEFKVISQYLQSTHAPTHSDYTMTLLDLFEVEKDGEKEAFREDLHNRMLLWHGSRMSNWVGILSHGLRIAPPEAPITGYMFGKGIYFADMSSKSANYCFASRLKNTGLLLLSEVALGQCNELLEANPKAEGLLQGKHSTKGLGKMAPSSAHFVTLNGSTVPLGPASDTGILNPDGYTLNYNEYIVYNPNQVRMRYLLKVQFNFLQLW

inhibition at 0.01 µM (PARP-1; [3]): -1.05%
inhibition at 0.01 µM (PARP-1; [4]): -1.1%
inhibition at 0.01 µM (PARP-2; [5]): 7.18%
inhibition at 0.01 µM (PARP-2; [6]): 7.2%
pIC50 [1, 7]: 4.08
pIC50 ([1]; Homo sapiens, CAPAN-1, 72 h, supplement Summary sheet, read-out: IC50): 4.08
IC50 ([1]; Homo sapiens, CAPAN-1, curve-fit output, concentrations in uM, read-out: IC50): 82.5 µM
pIC50 [2, 10]: 4.26
pIC50 ([2]; Homo sapiens, MDA-MB-436, 72 h, supplement Summary sheet, read-out: IC50): 4.26
IC50 ([2]; Homo sapiens, MDA-MB-436, curve fit list, no unit in the cell, concentration in uM, read-out: IC50): 55 µM
SMILES: NC(=O)c1cccc2[nH]c(C3CCN(CC(=O)c4ccccc4)C3)nc12 (stereo not drawn) [Compound 5cd, 2-(1-(2-Oxo-2-phenylethyl)pyrrolidin-3-yl)-1H-benzo[d]imidazole-4-carboxa-mide]
LogIC50 ([1]; CAPAN-1, curve-fit output, Log (uM)): 1.917
inhibition at 0.00508 µM [1, 8]: 4.6%
inhibition at 0.00508 µM [1, 9]: -0.8%
inhibition at 0.0152 µM [1, 8]: 2.6%
inhibition at 0.0152 µM [1, 9]: -1.6%
inhibition at 0.0457 µM [1, 8]: 0.6%
inhibition at 0.0457 µM [1, 9]: -4.7%
inhibition at […] [1, 8]: 3.7%
inhibition at […] [1, 9]: -1.1%
inhibition at 0.41 µM [1, 8]: 13.1%
inhibition at 0.41 µM [1, 9]: 3.2%
inhibition at 1.23 µM [1, 8]: 2.1%
inhibition at 1.23 µM [1, 9]: 3.2%
inhibition at 3.7 µM [1, 8]: 4%
inhibition at 3.7 µM [1, 9]: 4.4%
inhibition at 11.11 µM [1, 8]: 1%
inhibition at 11.11 µM [1, 9]: 4.4%
inhibition at 33.33 µM [1, 8]: 17.9%
inhibition at 33.33 µM [1, 9]: 8.7%
inhibition at 100 µM [1, 8]: 68%
inhibition at 100 µM [1, 9]: 55.2%
inhibition at 0.00508 µM [2, 8]: -0.654%
inhibition at 0.00508 µM [2, 9]: -7.1%
inhibition at 0.0152 µM [2, 8]: -3.7%
inhibition at 0.0152 µM [2, 9]: -6.1%
inhibition at 0.0457 µM [2, 8]: -6.8%
inhibition at 0.0457 µM [2, 9]: -12.7%
inhibition at 0.41 µM [2, 8]: -13.5%
inhibition at 0.41 µM [2, 9]: -13.2%
inhibition at 1.23 µM [2, 8]: -16.5%
inhibition at 1.23 µM [2, 9]: -19%
inhibition at 3.7 µM [2, 8]: -10.3%
inhibition at 3.7 µM [2, 9]: -11.7%
inhibition at 11.11 µM [2, 8]: 0.3%
inhibition at 11.11 µM [2, 9]: -11%
inhibition at 33.33 µM [2, 8]: 35.4%
inhibition at 33.33 µM [2, 9]: 16.5%
inhibition at 100 µM [2, 8]: 68.9%
inhibition at 100 µM [2, 9]: 66.2%
LogIC50 ([2]; MDA-MB-436, curve fit on Log (uM) concentrations): 1.74
Bottom ([2]; MDA-MB-436, curve fit parameter (Inh %)): -10.87
Top ([2]; MDA-MB-436, curve fit parameter (Inh %), '= 100.0' is a constrained value): = 100.0

inhibition at 0.01 µM (PARP-1; [3]): 22%
inhibition at 0.01 µM (PARP-1; [4]): 22%
inhibition at 0.01 µM (PARP-2; [5]): 74.6%
inhibition at 0.01 µM (PARP-2; [6]): 74.5%
pIC50 [1, 7]: < 4.00
pIC50 [2, 10]: < 4.00
SMILES: NC(=O)c1cccc2[nH]c(C3CCN(CCCN4C(=O)c5ccccc5C4=O)C3)nc12 (stereo not drawn) [Compound 5ce, 2-(1-(3-(1,3-Dioxoisoindolin-2-yl)propyl)pyrrolidin-3-yl)-1H-benzo[d]imidazole-4-carboxamide]
inhibition at 0.00508 µM [1, 8]: -4.4%
inhibition at 0.00508 µM [1, 9]: 0.4%
inhibition at 0.0152 µM [1, 8]: -2.3%
inhibition at 0.0152 µM [1, 9]: -0.9%
inhibition at 0.0457 µM [1, 8]: 1.8%
inhibition at 0.0457 µM [1, 9]: 10%
inhibition at […] [1, 8]: -0.6%
inhibition at […] [1, 9]: -2.2%
inhibition at 0.41 µM [1, 8]: 12.8%
inhibition at 0.41 µM [1, 9]: 3.7%
inhibition at 1.23 µM [1, 8]: 7.5%
inhibition at 1.23 µM [1, 9]: 3.7%
inhibition at 3.7 µM [1, 8]: 6.8%
inhibition at 3.7 µM [1, 9]: 9.9%
inhibition at 11.11 µM [1, 8]: 13.7%
inhibition at 11.11 µM [1, 9]: -0.541%
inhibition at 33.33 µM [1, 8]: 11%
inhibition at 33.33 µM [1, 9]: 3.9%
inhibition at 100 µM [1, 8]: 6.1%
inhibition at 100 µM [1, 9]: 4.5%
inhibition at 0.00508 µM [2, 8]: 20.1%
inhibition at 0.00508 µM [2, 9]: 0.9%
inhibition at 0.0152 µM [2, 8]: -2.8%
inhibition at 0.0152 µM [2, 9]: -5%
inhibition at 0.0457 µM [2, 8]: -11.2%
inhibition at 0.0457 µM [2, 9]: -11.9%
inhibition at 0.41 µM [2, 8]: -6.1%
inhibition at 0.41 µM [2, 9]: -15.6%
inhibition at 1.23 µM [2, 8]: -8.9%
inhibition at 1.23 µM [2, 9]: -17.5%
inhibition at 3.7 µM [2, 8]: -1.2%
inhibition at 3.7 µM [2, 9]: -9.2%
inhibition at 11.11 µM [2, 8]: 15.7%
inhibition at 11.11 µM [2, 9]: -2.9%
inhibition at 33.33 µM [2, 8]: -10.9%
inhibition at 33.33 µM [2, 9]: -11%
inhibition at 100 µM [2, 8]: 0.113%
inhibition at 100 µM [2, 9]: -9.4%
